The values that follow come from PMC13672995, “NCR13 peptide protects soybean against Cercospora sojina using multi-faceted modes of action and additive interaction with chemical fungicides” (Journal of Experimental Botany, 2025).

“Also recorded” adds a separate entry of the source. Where no end group is shown, it is not given here.

Series [1] relates to protein translation in C. sojina Cs350 germlings. Description: In vivo protein translation inhibition assay (puromycin labeling). It counts as cell-based, Cercospora sojina. To be noted: germlings treated 2 h at 6 µM and 12 µM, puromycin 1 mM 3 h; n=3. As for the experimental part:
To assess the translation inhibition of NCR13_PFV1 in C. sojina Cs350, we adapted a recently established puromycin labeling protocol in B. cinerea with minor modifications ([Godwin and Shah, 2025]). Cercospora sojina spores at a concentration of ∼10^5 ml^–1 were inoculated in SFM and cultured for 18 h. The germlings were then treated with NCR13_PFV1 (6 µM and 12 µM) or cycloheximide (50 µg ml^–1) (positive control) for 2 h, followed by the addition of puromycin (1 mM) and incubation for 3 h at 28 °C. After incubation, the germlings were washed three times with sterile water. Total proteins were extracted from germlings using lysis buffer (100 mM HEPES, 5 mM EDTA, 0.1% Triton-X 100, and yeast/fungal protease inhibitor cocktail) and the concentration was estimated using the Pierce BCA Protein Assay Kit (Thermo Scientific). Equal amounts (10 µg) of fungal protein were separated on a 4–20% mini-PROTEAN TGX stain-free protein gel (Bio-Rad, Cat No: 4568094). Western blot analysis was performed using an anti-puromycin antibody (Cell Signaling Technology, Cat No: 40939S), and signal intensities were quantified using Fiji ([Schindelin et al., 2012]).

Series [2] relates to B. cinerea. Briefly: In vitro antifungal activity against B. cinerea. Type of series: cell-based, Botrytis cinerea.
Series [3] has as its system B. cinerea. To be noted: ref Godwin et al., 2024; cited from earlier work. From the text: The cysteine-rich defensins are the best characterized class of plant AFPs for their antifungal activity and multi-faceted MoAs. Many fungal pathogens internalize defensins and defensin-derived peptides in vitro, making them promising candidates for development as bio-fungicides to protect crops. For example, a well-characterized plant defensin MtDef4 and the 17 amino acid γ-core peptide GMA4CG_V6 peptide derived from this defensin are internalized by the necrotrophic pathogen Botrytis cinerea in vitro and robustly reduce gray mold symptoms when sprayed on tomato plants ([Tetorya et al., 2023] ...

The test system of series [4] is soybean cv. Blackhawk plants. The following applies: 48 µM spray. How it is done:
To test the potential phytotoxicity of NCR13_PFV1 spray on soybean plants, 48 µM NCR13_PFV1 or water was first sprayed on 4-week-old soybean cv. Blackhawk plants (2 ml per plant) followed by biweekly sprays at 5 ml per plant until plants were 10 weeks old. When plants reached 12 weeks, photographs were taken for phenotypic analysis and the plants were allowed to mature. Soybean pods were harvested when the plants were all dry and mature, and the number of pods, 100 seed weight, and total seed weight were determined. At least four plants per treatment were tested.

For series [5], the system named is C. sojina Cs350 conidia and germlings. Description: Plasma membrane permeabilization assay (SYTOX Green). It counts as cell-based, Cercospora sojina. How it is done:
Membrane permeabilization of C. sojina Cs350 by NCR13_PFV1 and azoxystrobin was analyzed by visualizing the influx of SYTOX Green (SG) (Thermo Scientific) using time-lapse confocal microscopy. Germlings grown for 6–8 h or conidia of C. sojina were mixed with various concentrations of NCR13_PFV1, azoxystrobin, or both and 0.5 µM SG and were observed under confocal microscopy at an excitation wavelength of 500 nm and an emission wavelength ranging from 510 nm to 600 nm at specific time intervals. A z-stack at each time point was acquired using a ×63 water immersion objective lens (HC PL Apochromat CS2).

The nature of series [6]: Heme-peptide binding assay (colour change). The following applies: equimolar heme and peptide, 100 µM, 1 h, room temperature. As for the experimental part: Heme solutions were freshly prepared by dissolving hemin chloride (Sigma Cat No: 3741) in 0.1 M NaOH and used within an hour after preparation. Two heme-sequestering peptides, NCR247 and NCR455 ([Montiel et al., 2017]; [Sankari et al., 2022]), were used as positive controls, and water-only treatment as a negative control. The equimolar concentration of heme and peptide (100 µM) or water were mixed and incubated at room temperature for 1 h. When dissolved in NaOH, heme is light to dark brown in color; however, when it binds to a peptide, the color changes to reddish-brown as described by [Sankari et al. (2022)]. The change in color of heme to reddish-brown indicated the heme binding ability of the peptide.

A short description of series [7]: Peroxidase assay (TMB substrate). It counts as biochemical. To be noted: heme 5 µM, peptide 5 µM, absorption at 370 nm and 652 nm. As for the experimental part:
A Pierce TMB substrate kit (Thermo Scientific) was used to measure the peroxidase activity of heme. In a transparent 96-well plate, 50 µl of TMB substrate and 50 µl of […] were added followed by addition of heme (5 µM) or peptides plus heme (5 µM each). The reaction progression was measured in the Tecan plate reader, by recording UV-vis absorption values at 370 nm and 652 nm for every minute up to 1 h.

The subject of another series is C. sojina Cs350 cells. Description: Uptake and subcellular localization by time-lapse confocal microscopy. It counts as cell-based, Cercospora sojina. To be noted: DyLight550-labeled peptide; nuclear localization mostly at 0.75 μM (0.5× MIC); Hoechst, CMAC and BODIPY co-staining. As for the experimental part: NCR13_PFV1 was labeled with DyLight550 amine-reactive dye following the manufacturer’s instructions (Thermo Scientific), and time-lapse confocal microscopy was performed to measure the uptake and subcellular localization of the peptide in C. sojina Cs350 cells. The nuclear staining dye Hoechst 3352 was used along with DyLight550-NCR13_PFV1 to determine the subcellular localization of NCR13_PFV1 in C. sojina. Conidia grown for 6–8 h were treated with 0.75 µM Dylight550-NCR13_PFV1 and incubated for 30 min, after which 4 µM Hoechst 3352 dye was added for another 15 min. Treated conidia were used to capture z-stacks at specific time intervals using a Leica SP8-X confocal microscope (×63 water immersion objective lens, HC PL Apochromat CS2) in fluorescence and transmitted light mode. The excitation and emission wavelengths of DyLight550-NCR13_PFV1 and Hoechst 3352 were 550 nm, 560–660 nm, and 405 nm, 420–500 nm, respectively. Similarly, to determine the subcellular localization of NCR13_PFV1 in other organelles, C. sojina conidia were also stained with the vacuole-specific dye CMAC and the lipid staining dye BODIPY 493/503 (Thermo Scientific). The excitation and emission wavelengths for CMAC and BODIPY were 405 nm, 420–500 nm, and 493 nm, 505–540 nm, respectively.

As for “TKPCQSDKDCKKFACRKPKVPKCINGFCKCVR (disulfide (positions not given here)) [NCR13_PFV1, chickpea nodule-specific cysteine-rich 32 amino acid peptide, disulfide cross-linking variant 1, expressed in Pichia pastoris]”, the “concentration from which protein translation inhibition was observed” value in series [1] was determined as 6 µM. In the series on B. cinerea [2] (iron from 5 µM to 30 μM), the “fold increase in MIC against B. cinerea with increasing iron” value turned out to be 4 fold. Also, in the series with B. cinerea [2] (medium with 5 µM iron), the “MIC against B. cinerea at low iron” value was determined as 0.375 µM. The “MIC against B. cinerea at high iron” value against B. cinerea [2] (medium with 30 μM iron) amounted to 1.5 µM. Moreover, the “fold more potent antifungal activity than NCR13_PFV2 against B. cinerea” value in the series on B. cinerea [3] is 2 fold. The “morphology of sprayed plants (growth rate, height, leaf color) compared with water” value in series [4] (bi-weekly from the fourth to the 10th week, at least four plants) is listed as “No morphological difference”. Moreover, in series [4] (at maturity, Student’s t-test), the “number of pods, 100 seed weight, total seed yield compared with water” value is listed as “no significant differences”. Also, the “plasma membrane permeabilization (SYTOX Green uptake)” value in series [5] (Cs350, 0.5 µM SG, confocal microscopy) is on record as “permeabilization of the plasma membrane”. In addition, the “time to plasma membrane permeabilization of conidia and germlings” value in series [5] (SYTOX Green uptake) is recorded as at most 10 min. The “heme binding (colour change of heme from brown to reddish-brown)” value in series [6] is reported as “no such color change”. In addition, in series [7], the “peroxidase activity of heme and FeSO4 in the presence of peptide” value was “not reduced or stopped”. Besides, the subcellular localization entry with C. sojina Cs350 cells was “localized to the nucleus; also recorded: no evidence of co-localization of the peptide with either lipid bodies or the vacuole”.
